Reference: patent publication US20250263404A1, “AMINOPYRIDINES AS ACTIVATORS OF PI3 KINASE” (UCL Business Ltd, priority 2021, published 2025)

Assays:
isolated rat hearts = assay: Langendorff ex vivo perfused rat heart model of IRI; details: 5 μM
[1] = tested on: adult rat dorsal root ganglion (DRG) cultures; assay: Neurite outgrowth in dissociated adult rat DRG cultures; type: cell-based; details: 72 h
Text: Given that there are currently no small molecule clinical-stage treatments routinely used to stimulate neuronal regeneration such as for injury to peripheral nerves, the spinal cord or optic nerves, we explored the potential of PI3Kα activation in this context.
Dorsal root ganglion (DRG) neurons were isolated from adult male (>250 g) Wistar rats as described, with DRGs from each rat cultured separately (Rayner, M. L. D. et al. Anatomical record 301, 1628-1637 (2018)). Following culling via schedule 1 (rising concentration of CO2), the spinal column was removed and stored in PBS on ice. Cord tissue was removed to expose the DRG and roots in the intervertebral foramen and the DRGS removed with forceps and scalpel under a dissecting microscope (Olympus SZ40). DRGs were manually cleaned by removal of roots, capsule and capillaries with forceps and then placed in DMEM supplemented with P/S. DRGs were treated with 0.125% collagenase type IV solution at 37° C. for 90 min, and then mechanically dissociated by trituration using a 1 ml pipette. The collagenase solution was removed by 2 rounds of centrifugation in complete DMEM (DMEM with 1% P/S and 10% FBS) at 400×g for 5 min, followed by resuspension of the DRG cell pellet in complete DMEM supplemented with 0.01 mM cytosine arabinoside. DRGs were plated in 75-cm^2 flasks coated with 0.1 mg/ml poly-D-lysine and incubated at 37° C., 5% CO2. […]

PIP3 levels in MEFs = assay: PIP3 measurement by mass spectrometry in MEFs; type: cell-based, mouse
Procedure: FIG. 21. a, MEFs were stimulated for the indicated time points with 1938 (5 μM) or for 2 min with PDGF (20 ng/ml) or insulin (100 nM), followed by lipid extraction and PIP3 measurement by mass spectrometry. b, MEFs were stimulated for 2 min with increasing doses of 1938 or PDGF, followed by lipid extraction and PIP3 measurement by mass spectrometry. c, A549 cells were stimulated for 2 min with increasing doses of 1938 or insulin, or 10 ng/ml PDGF, followed by lipid extraction and PIP3 measurement by mass spectrometry.
Class I PI3Ks phosphorylate the PtdIns(4,5)P2 lipid in the plasma membrane to generate PtdIns(3,4,5)P3 (or PIP3), which can be converted to PtdIns(3,4)P2 by the action of 5-phosphatases. Treatment of MEFs (Mouse Embryonic Fibroblasts) with 1938 very rapidly (within 30 sec) led to increased PIP3 levels, as assessed by mass spectrometry, maxing at 5 min and maintained at this maximum level for up to 40 min (FIG. 21a). […] The observation of different levels of PIP3 induced by these growth factors is in line with the notion that PI3Kα is the sole mediator of PIP3 production downstream of insulin. This contrasts with PDGF, which activates both PI3Kα and PI3Kβ, with the latter PI3K isoform contributing substantially to acute PDGF-stimulated PIP3 generation in MEFs, correlating with the higher PIP3 levels induced by this agonist compared to insulin and 1938 (FIG. 21a). In the same experiment as in FIG. 21a, clear PI(3,4)P2 signal was detected in MEFs upon PDGF stimulation but not with 1938 (at 5 μM). This is consistent with a higher threshold for detection of PI(3,4)P2 compared to PIP3 by mass spectrometry (due primarily to background contamination, as discussed by Malek et al.), together with the relatively lower PI3K activation by 1938 compared to a high dose of PDGF, as is also illustrated by the experiments shown below.
These maximal 1938-induced PIP3 levels are below those required to give rise to sufficient PI(3,4)P2 to be detectable by mass spectrometry, a conclusion also supported by the observation that substantial levels of PIP3 induced by lower doses of PDGF (e.g. 0.5 ng/ml) were also not sufficient to give rise to levels of PI(3,4)P2 detectable by mass. […] A strong PIP3 response was also observed with insulin in these cells, with no PIP3 induced by PDGF, in line with the absence of this receptor in epithelial cells, including in A549.

For `CCN1CCN(c2ccc(Nc3cc(Nc4cccc5c4N(C(C)=O)CC5)ccn3)cc2)CC1` [Example 1938], the “pAKT S473 in perfused rat hearts” value (isolated rat hearts) was “increase in generation of pAKTS473”, the “tissue protection from IRI” value (isolated rat hearts; administration during first 15 min of reperfusion) was “substantial tissue protection from IRI” and the neurite outgrowth ([1]; dose-dependent) was “significantly increased neurite outgrowth”. The “total length of neurites” value ([1]; higher 1938 concentrations) was “doubling the total length of neurites”, the “concentration at which PIP3 induction plateaus” value (PIP3 levels in MEFs; 2 min) was “around 10 μM” and the “duration of maximum PIP3 level” value (PIP3 levels in MEFs; 1938 5 μM) was “up to 40 min”. For the same molecule, the “time of maximum PIP3 level” value (PIP3 levels in MEFs; 1938 5 μM) was 5 min, the “time to increased PIP3 levels” value (PIP3 levels in MEFs; 1938 5 μM) was ≤ 30 s and the EC50 (PIP3 levels in MEFs; Mus musculus, 2 min, fixed 2 min time point, read-out: EC50 of PIP3 induction) was ~5 µM.
